# Reference: patent US20250302948A1, “DR5 Agonist and IAP Antagonist Combination Therapy” (Inhibrx Biosciences, Inc., priority 2022, published 2025)
# What was measured:
# SW1990 = assay: Cytotoxicity on pancreatic cancer cell lines, assay similar to Example 1 (Example 4); conditions: Homo sapiens
# Experimental: (§4) Day 1-Cell Seeding. Monolayer cultures of each cell line were harvested for compound screening as detailed below. Culture medium was aspirated, and the cells were washed once with PBS. Accutase was added and flasks were incubated at 37° C. until cells became detached. An equal volume of complete medium was added to quench the Accutase, and the cells were then pipetted up and down several times to generate a homogenous single cell suspension. The density and viability of cells was determined by Trypan Blue using a TC20 Automated Cell Counter. Experimental cells were resuspended to a concentration of 0.17×10^6/mL in EMEM/10% FBS/Anti-Anti media (complete EMEM) and seeded in the inner wells of 384-well luminescence plates at 15 μL/well (2,500/well final). Each cell line was plated in duplicate on separate plates. […]
# (§5) Day 4—Viability Measurements. […] Any visible bubbles were removed with 100% ethanol vapor, then luminescence (RLU) was read on the Spectra Max M5e plate reader, using the 384-well opaque plate setting and SoftMaxPro v5.4 software with an integration time of 50 milliseconds. To determine the effect of test articles on cell viability, raw RLU values were exported to Excel and percent survival was calculated as a percentage of vehicle control (0.2% DMSO in EMEM), where the vehicle control is set at 100%. […]
# HCC1806 = assay: Cytotoxicity on breast cancer cell lines, assay similar to Example 3 (Example 4); conditions: Homo sapiens
# Experimental: (§6) Day 1—Cell Seeding. Monolayer cultures of each cancer cell line (see Table 7) were harvested during the logarithmic growth period. The density and viability of cells was determined by Trypan Blue using a Vi cell counter, cells were diluted in the appropriate growth media (see Table 7) and 90 μL cell suspensions were added to 96-well plates for compound screening as detailed below. Two duplicate plates were set up for day 0 reading (T0) and for reading at the end point (T48).
# (§7) To generate a 10× working dilution plate of the small molecules, a 1:100 dilution was performed from the 1000× plate into the appropriate media.
# (§8) Day 2—Compound Treatment. […] The plates were then incubated in a 37° C. humidity-controlled tissue culture incubator (5% CO2).
# (§9) 20 μL culture medium containing 1% DMSO and 50 μL CellTiter-Glo® Reagent was added to each well of the TO plates and the contents mixed, plate was incubated at room temperature for 30 min, and read on an En Vision Multi Label Reader.
# (§10) Day 4—Viability Measurements. 50 μL CellTiter-Glo® Reagent was added to each well of the T48 plates and the contents mixed, plate was incubated at room temperature for 30 min, and read on an EnVision Multi Label Reader. […] Percent cytotoxicity was calculated by subtracting the % survival from 100.
# SUM159PT = assay: as above; conditions: Homo sapiens, SUM-159-PT
# Experimental: as §6, §7, §8, §9, §10
# CAL-51 = assay: as above; conditions: Homo sapiens
# Experimental: (§11) Day 1—Cell Seeding. […] Two duplicate plates were set up for day 0 reading (T0) and for reading at the end point (T48).
# as §7, §8, §9
# (§12) Day 4—Viability Measurements. 50 μL CellTiter-Glo® Reagent was added to each well of the T48 plates and the contents mixed, plate was incubated at room temperature for 30 min, and read on an EnVision Multi Label Reader. The formula for calculating percent survival is: % survival=(LumTest article−LumMedium control)/(LumNone treated−LumMedium control)×100%. Percent cytotoxicity was calculated by subtracting the % survival from 100.
# A549 = assay: Cytotoxicity on lung cancer cell lines, assay similar to Example 1 (Example 4); conditions: Homo sapiens
# Experimental: as §4, §5
# MX = assay: Cytotoxicity on breast cancer cell lines, assay similar to Example 3 (Example 4)
# Experimental: (§13) Two duplicate plates were set up for day 0 reading (T0) and for reading at the end point (T48).
# as §7, §8, §9, §12
# SNU-5 = assay: Cytotoxicity on gastric cancer cell lines, assay similar to Example 1 (Example 4); conditions: Homo sapiens
# Experimental: as §4
# (§14) Day 4—Viability Measurements. […] Any visible bubbles were removed with 100% ethanol vapor, then luminescence (RLU) was read on the Spectra Max M5e plate reader, using the 384-well opaque plate setting and SoftMaxPro v5.4 software with an integration time of 50 milliseconds. To determine the effect of test articles on cell viability, raw RLU values were exported to Excel and percent survival was calculated as a percentage of vehicle control (0.2% DMSO in EMEM), where the vehicle control is set at 100%.
# AsPC-1 = assay: Cytotoxicity on pancreatic cancer cell lines, assay similar to Example 1 (Example 4); conditions: Homo sapiens, ASPC1
# Experimental: as §4, §14
# LS411N = assay: CellTiter-Glo cell viability, 48 h (Example 1); format: cell-based; conditions: Homo sapiens, LS-411N
# Text: (§1) Test Article Preparation for INBRX-109.
# (§2) Day 2—Test and Control Article Addition.
# (§3) Day 4—Viability Measurements. […] Data was graphed in GraphPad Prism 7.
# SNU-C2B = assay: CellTiter-Glo cell viability, 48 h (Example 1); format: cell-based; conditions: Homo sapiens
# Text: as §1, §2, §3
# HT-29 = assay: CellTiter-Glo cell viability, 48 h (Example 1); format: cell-based; conditions: Homo sapiens
# Text: as §1, §2, §3
# HS 578T = assay: Cytotoxicity on breast cancer cell lines, assay similar to Example 3 (Example 4); conditions: Homo sapiens
# Experimental: as §11, §7, §8, §9, §12
# CAL-78 = assay: Cytotoxicity on chondrosarcoma cell lines, assay similar to Example 1 (Example 4)
# Experimental: as §4, §5
# NCI-N87 = assay: Cytotoxicity on gastric cancer cell lines, assay similar to Example 1 (Example 4); conditions: Homo sapiens
# Experimental: as §4, §14
# HCC1187 = assay: Cytotoxicity on breast cancer cell lines, assay similar to Example 3 (Example 4); conditions: Homo sapiens
# Experimental: as §6, §7, §8, §9, §10
# NCI-H2452 = assay: Cytotoxicity on lung cancer cell lines, assay similar to Example 1 (Example 4); conditions: Homo sapiens
# Experimental: as §4, §5
# MIA-PaCa-2 = assay: Cytotoxicity on pancreatic cancer cell lines, assay similar to Example 1 (Example 4); conditions: Homo sapiens
# Experimental: as §4, §5
# BT-549 = assay: Cytotoxicity on breast cancer cell lines, assay similar to Example 3 (Example 4); conditions: Homo sapiens
# Experimental: as §13, §7, §8, §9, §12
# Panc-1 = assay: Cytotoxicity on pancreatic cancer cell lines, assay similar to Example 1 (Example 4); conditions: Homo sapiens
# Experimental: as §4, §14
# HCC1395 = assay: Cytotoxicity on breast cancer cell lines, assay similar to Example 3 (Example 4); conditions: Homo sapiens
# Experimental: as §11, §7, §8, §9, §12
# SW620 = assay: CellTiter-Glo cell viability, 48 h (Examples 1, 2); format: cell-based; conditions: Homo sapiens, SW-620
# Text: as §1, §2, §3
# NCI-H23 = assay: Cytotoxicity on lung cancer cell lines, assay similar to Example 1 (Example 4); conditions: Homo sapiens
# Experimental: as §4, §5
# HCC2935 = assay: as above; conditions: Homo sapiens
# Experimental: as §4, §5
# HCC70 = assay: Cytotoxicity on breast cancer cell lines, assay similar to Example 3 (Example 4); conditions: Homo sapiens
# Experimental: as §6, §7, §8, §9, §10
# NCI-H460 = assay: Cytotoxicity on lung cancer cell lines, assay similar to Example 1 (Example 4); conditions: Homo sapiens
# Experimental: as §4, §5
# OUMS-27 = assay: Cytotoxicity on chondrosarcoma cell lines, assay similar to Example 1 (Example 4)
# Experimental: as §4, §5
# DU4475 = assay: Cytotoxicity on breast cancer cell lines, assay similar to Example 3 (Example 4); conditions: Homo sapiens, DU-4475
# Experimental: as §6, §7, §8, §9, §10
# BT-20 = assay: as above; conditions: Homo sapiens
# Experimental: as §13, §7, §8, §9, §12
# SNU-1 = assay: Cytotoxicity on gastric cancer cell lines, assay similar to Example 1 (Example 4); conditions: Homo sapiens, SNU1
# Experimental: as §4, §14
# CAL-120 = assay: Cytotoxicity on breast cancer cell lines, assay similar to Example 3 (Example 4); conditions: Homo sapiens
# Experimental: as §13, §7, §8, §9, §12
# HCC1937 = assay: as above; conditions: Homo sapiens
# Experimental: as §13, §7, §8, §9, §12
# SW1353 = assay: Cytotoxicity on chondrosarcoma cell lines, assay similar to Example 1 (Example 4); conditions: Homo sapiens
# Experimental: as §4, §5
# H-EMC-SS = assay: as above
# Experimental: as §4, §5
smiles,measurement,setting,value
"CC[C@H](NC(=O)[C@H](C)NC)C(=O)N1C[C@@H](O)C[C@H]1Cc1c(-c2[nH]c3cc(F)ccc3c2C[C@@H]2C[C@H](O)CN2C(=O)[C@H](CC)NC(=O)[C@H](C)NC)[nH]c2cc(F)ccc12 [Birinapant, birinapant]",cytotoxicity at 2 µM,SW1990,10.4%
same,cytotoxicity at 3.16 µM,HCC1806,5.17%
same,cytotoxicity at 3.16 µM,SUM159PT,-1.7%
same,cytotoxicity at 3.16 µM,CAL-51,2.35%
same,cytotoxicity at 2 µM,A549,11.3%
same,cytotoxicity at 3.16 µM,MX,-7.11%
same,cytotoxicity at 2 µM,SNU-5,59.6%
same,cytotoxicity at 2 µM,AsPC-1,9.46%
same,cytotoxicity at 5 µM,LS411N,14.3%
same,cytotoxicity at 5 µM,SNU-C2B,71.1%
same,cytotoxicity at 5 µM,HT-29,20.4%
same,cytotoxicity at 3.16 µM,HS 578T,12.7%
same,cytotoxicity at 2 µM,CAL-78,14%
same,cytotoxicity at 2 µM,NCI-N87,1.82%
same,cytotoxicity at 3.16 µM,HCC1187,36%
same,cytotoxicity at 2 µM,NCI-H2452,6.11%
same,cytotoxicity at 2 µM,MIA-PaCa-2,9.17%
same,cytotoxicity at 3.16 µM,BT-549,6.85%
same,cytotoxicity at 2 µM,Panc-1,11.7%
same,cytotoxicity at 3.16 µM,HCC1395,8.93%
same,cytotoxicity at 5 µM,SW620,11.7%
same,cytotoxicity at 2 µM,NCI-H23,9.3%
same,cytotoxicity at 2 µM,HCC2935,13.9%
same,cytotoxicity at 3.16 µM,HCC70,34%
same,cytotoxicity at 2 µM,NCI-H460,6.55%
same,cytotoxicity at 2 µM,OUMS-27,-0.15%
same,cytotoxicity at 3.16 µM,DU4475,14.3%
same,cytotoxicity at 3.16 µM,BT-20,6.51%
same,cytotoxicity at 2 µM,SNU-1,7.62%
same,cytotoxicity at 3.16 µM,CAL-120,2.75%
same,cytotoxicity at 3.16 µM,HCC1937,-2.77%
same,cytotoxicity at 2 µM,SW1353,0.1%
same,cytotoxicity at 2 µM,H-EMC-SS,31.1%
